{"source": "ChEMBL document CHEMBL4823254", "about": "“Tetrahydroquinoline-Capped Histone Deacetylase 6 Inhibitor SW-101 Ameliorates Pathological Phenotypes in a Charcot-Marie-Tooth Type 2A Mouse Model” (J Med Chem, 2021)", "key": {"[1]": {"tested_on": "Mus musculus", "assay": "Neuroprotective activity in hMFN2-induced CMT2A transgenic mouse model assessed as increase in paw withdrawal threshold at 20 mg/kg, ip qd administered when treated prior with compound dissolved in PBS/PEG400/Tween80/EtOH (50/35/10/5) wt% as vehicle by von Frey test", "format": "functional, organism-based"}, "[2]": {"molecular_target": "T1, Histone deacetylase 11 (Homo sapiens, UniProt Q96DB2)", "T1 sequence (Q96DB2 whole entry)": "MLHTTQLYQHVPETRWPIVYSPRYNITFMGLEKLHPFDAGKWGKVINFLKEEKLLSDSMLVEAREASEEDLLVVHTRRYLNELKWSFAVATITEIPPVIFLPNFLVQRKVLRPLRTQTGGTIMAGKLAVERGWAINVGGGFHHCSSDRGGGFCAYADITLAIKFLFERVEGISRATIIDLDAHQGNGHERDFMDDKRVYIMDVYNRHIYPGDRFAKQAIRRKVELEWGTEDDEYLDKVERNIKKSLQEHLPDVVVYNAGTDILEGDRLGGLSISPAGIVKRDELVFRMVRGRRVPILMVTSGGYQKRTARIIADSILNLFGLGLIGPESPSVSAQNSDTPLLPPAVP", "assay": "Inhibition of recombinant human HDAC11 expressed in HEK293T/17 cells using Boc-Lys(TFA)-AMC as substrate preincubated for 10 mins followed by substrate addition and measured after 30 mins by fluorescence-based assay"}, "[3]": {"assay": "Genotoxicity in Salmonella typhimurium TA98 at 5 to 100 uM in presence of liver S9 fraction by Ames test", "format": "toxicity", "conditions": "salmonella enterica subsp. enterica serovar typhimurium, s9, 100 µM; dose 5-100 µM"}, "[4]": {"molecular_target": "Histone deacetylase 1 (Homo sapiens, UniProt Q13547)", "sequence (Q13547 whole entry)": "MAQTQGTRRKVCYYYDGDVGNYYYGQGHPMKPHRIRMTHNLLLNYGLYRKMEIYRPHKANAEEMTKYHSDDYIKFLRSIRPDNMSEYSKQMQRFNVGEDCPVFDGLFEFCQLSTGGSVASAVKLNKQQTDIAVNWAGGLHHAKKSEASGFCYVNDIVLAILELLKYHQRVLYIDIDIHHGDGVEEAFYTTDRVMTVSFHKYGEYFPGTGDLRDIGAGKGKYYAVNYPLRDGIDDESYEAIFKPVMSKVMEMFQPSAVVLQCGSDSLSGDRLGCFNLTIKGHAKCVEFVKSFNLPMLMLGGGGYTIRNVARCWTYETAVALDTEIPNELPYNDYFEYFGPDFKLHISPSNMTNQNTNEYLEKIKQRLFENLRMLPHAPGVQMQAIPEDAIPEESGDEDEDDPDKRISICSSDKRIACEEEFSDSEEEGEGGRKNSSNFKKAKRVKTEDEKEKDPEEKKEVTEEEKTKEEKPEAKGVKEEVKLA", "description": "Inhibition of Nanoluc-fused HDAC1 (unknown origin) expressed in HEK293 cells incubated for 2 hrs by NANOBRET assay"}, "[5]": {"molecular_target": "T2, Protein deacetylase HDAC6 (Mus musculus) (UniProt Q9Z2V5)", "T2 sequence (whole entry)": "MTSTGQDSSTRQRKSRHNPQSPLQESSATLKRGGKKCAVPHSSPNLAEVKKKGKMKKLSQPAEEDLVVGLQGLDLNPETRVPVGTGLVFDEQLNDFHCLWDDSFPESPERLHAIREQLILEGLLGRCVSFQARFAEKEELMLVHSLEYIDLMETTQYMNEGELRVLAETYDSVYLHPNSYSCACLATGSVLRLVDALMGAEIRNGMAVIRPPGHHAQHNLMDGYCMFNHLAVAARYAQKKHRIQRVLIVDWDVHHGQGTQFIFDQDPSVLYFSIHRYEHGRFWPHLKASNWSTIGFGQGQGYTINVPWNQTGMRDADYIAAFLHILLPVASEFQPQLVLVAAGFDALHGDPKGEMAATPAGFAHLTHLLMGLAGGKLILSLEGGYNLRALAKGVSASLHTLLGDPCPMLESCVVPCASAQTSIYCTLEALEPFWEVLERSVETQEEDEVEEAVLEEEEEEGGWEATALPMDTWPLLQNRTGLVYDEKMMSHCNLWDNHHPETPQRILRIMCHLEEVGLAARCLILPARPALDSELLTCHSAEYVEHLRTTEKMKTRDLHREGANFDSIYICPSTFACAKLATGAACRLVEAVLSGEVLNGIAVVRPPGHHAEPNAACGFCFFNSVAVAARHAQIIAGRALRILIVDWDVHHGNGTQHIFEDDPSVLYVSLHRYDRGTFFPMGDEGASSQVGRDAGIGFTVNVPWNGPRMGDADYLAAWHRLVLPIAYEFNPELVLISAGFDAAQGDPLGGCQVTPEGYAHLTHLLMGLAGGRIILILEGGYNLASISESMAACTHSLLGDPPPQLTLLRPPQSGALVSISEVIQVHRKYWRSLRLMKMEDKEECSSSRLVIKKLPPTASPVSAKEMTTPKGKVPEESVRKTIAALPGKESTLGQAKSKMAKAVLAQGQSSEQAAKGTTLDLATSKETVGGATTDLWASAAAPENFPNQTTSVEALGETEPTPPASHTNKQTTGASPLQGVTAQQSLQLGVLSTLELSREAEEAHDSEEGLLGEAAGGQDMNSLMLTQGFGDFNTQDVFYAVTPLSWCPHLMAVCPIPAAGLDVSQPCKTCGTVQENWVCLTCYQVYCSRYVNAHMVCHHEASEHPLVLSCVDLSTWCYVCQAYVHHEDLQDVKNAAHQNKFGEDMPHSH", "assay": "In vivo inhibition of HDAC6 in wild type mouse assessed as increase in alpha-tubulin acetylation in sciatic nerve tissue at 20 mg/kg, ip administered for 12 hrs by immunoblot analysis relative to control", "format": "functional, organism-based", "design": "scale not given: the % may be the effect or the level left"}, "[6]": {"molecular_target": "T2, Protein deacetylase HDAC6 (Mus musculus)", "assay": "In vivo inhibition of HDAC6 in wild type mouse assessed as increase in alpha-tubulin acetylation in sciatic nerve tissue at 10 to 20 mg/kg, ip measured after 6 hrs by immunoblot analysis relative to control", "format": "functional, organism-based", "design": "scale not given: the % may be the effect or the level left", "conditions": "dose 10-20 mg/kg"}, "[7]": {"molecular_target": "Histone deacetylase 4 (Homo sapiens, UniProt P56524)", "sequence (P56524 whole entry)": "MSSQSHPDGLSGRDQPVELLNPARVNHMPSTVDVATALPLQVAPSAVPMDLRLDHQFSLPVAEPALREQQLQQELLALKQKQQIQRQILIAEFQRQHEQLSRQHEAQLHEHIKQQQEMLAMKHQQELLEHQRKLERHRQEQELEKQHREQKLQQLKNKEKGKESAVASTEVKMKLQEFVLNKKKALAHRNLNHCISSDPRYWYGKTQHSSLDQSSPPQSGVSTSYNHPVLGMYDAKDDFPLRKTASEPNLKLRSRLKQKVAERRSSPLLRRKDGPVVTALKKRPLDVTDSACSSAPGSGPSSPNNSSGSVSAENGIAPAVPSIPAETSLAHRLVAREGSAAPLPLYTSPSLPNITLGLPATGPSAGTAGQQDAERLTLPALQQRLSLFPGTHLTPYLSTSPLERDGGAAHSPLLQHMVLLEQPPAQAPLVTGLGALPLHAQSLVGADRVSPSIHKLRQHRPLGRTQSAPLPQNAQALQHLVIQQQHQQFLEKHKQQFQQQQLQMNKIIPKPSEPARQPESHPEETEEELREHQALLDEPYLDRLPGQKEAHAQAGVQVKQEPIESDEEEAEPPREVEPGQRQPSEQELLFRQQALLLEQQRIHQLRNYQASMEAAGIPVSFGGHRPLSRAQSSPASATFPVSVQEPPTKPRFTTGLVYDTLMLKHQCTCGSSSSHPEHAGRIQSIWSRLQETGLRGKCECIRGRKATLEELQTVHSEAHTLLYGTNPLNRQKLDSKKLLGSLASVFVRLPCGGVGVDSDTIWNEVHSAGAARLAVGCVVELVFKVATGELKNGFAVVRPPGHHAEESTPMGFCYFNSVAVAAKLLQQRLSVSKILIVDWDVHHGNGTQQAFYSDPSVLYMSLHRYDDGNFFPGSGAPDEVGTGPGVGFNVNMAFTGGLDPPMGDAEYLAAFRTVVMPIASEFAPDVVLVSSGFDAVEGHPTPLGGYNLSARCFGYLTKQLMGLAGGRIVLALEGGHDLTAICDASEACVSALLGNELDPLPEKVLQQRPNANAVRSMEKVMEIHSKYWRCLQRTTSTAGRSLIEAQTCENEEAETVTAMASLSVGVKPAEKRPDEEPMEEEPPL", "assay": "Inhibition of recombinant human HDAC4 using Boc-Lys(TFA)-AMC as substrate preincubated for 10 mins followed by substrate addition and measured after 30 mins by fluorescence-based assay"}, "[8]": {"assay": "Total AUC (0 to infinity) in C57BL/6J mouse plasma at 15 mg/kg, ip", "format": "ADME, organism-based", "design": "route intraperitoneal, time AUCmax, dose 15 mg/kg"}}, "note": "Active and inactive are the calls of the source.", "data": [{"smiles": "NC(=O)c1ccc2c(c1)CCCN2Cc1ccc(C(=O)NO)cc1", "values": [{"measurement": "Activity", "setting": "[1]", "result": "Active"}, {"measurement": "IC50", "setting": "[2]", "result": 5.31, "unit": "µM"}, {"measurement": "Activity", "setting": "[3]", "result": "Non-Toxic"}, {"measurement": "IC50", "setting": "[4]", "result": 4.83, "unit": "µM"}, {"measurement": "Activity", "setting": "[5]", "result": 175, "unit": "%"}, {"measurement": "Activity", "setting": "[6]", "result": 150, "unit": "%"}, {"measurement": "IC50", "setting": "[7]", "result": 0.454, "unit": "µM"}, {"measurement": "AUC(0-inf)", "setting": "[8]", "result": 1750, "unit": "ng·h/mL"}]}]}
